Where two headings read alike, the source gives them in different places. Values belong to the compound of their own block, whether it stands above or below them.
Key:
[1] = target: Hsp90 chaperone machinery present in rabbit reticulocyte lysate; test: Hsp90-dependent refolding of thermally denatured luciferase in rabbit reticulocyte lysate (high-throughput screen and titration); format: biochemical; settings: for Inhibition of Hsp90-dependent refolding of luciferase in the initial screen: 12.5 µg/mL (Analyticon compounds 40 µM), Microsource screen used a cut-off of 70% inhibition
Description: Rabbit reticulocyte lysate, prepared by lysing one volume of packed reticulocytes in two volumes of deionized water, followed by centrifugation for twenty minutes at 15,000 × g, was purchased from Green Hectares (Oregon, WI, USA).
Recombinant luciferase from Promega was diluted to 0.5 mg/mL in buffer consisting of 25 mM Tricine–HCl (pH 7.8), 8 mM MgSO4, 0.1 mM EDTA, and 10 mg/mL acetylated BSA. Next, the solution was adjusted to include 10% glycerol and 1% Triton X-100. Finally, the luciferase solution was heated to ~41°. Once the activity of the luciferase reached ~1% of its initial value, the mixture was placed on ice, or flash frozen in liquid nitrogen and placed at −80° for storage.
To prepare the denatured luciferase for use in re-folding assays, 125 µL of the 0.5 mg/mL mixture was added into a 10 mL mixture containing 80 mM Tris HCl, pH 7.7, 8 mM Mg(OAc)2, 300 mM KCl, 12 mM ATP, and 20 mM creatine phosphate, and 0.8 mg/mL creatine phosphokinase.
The assay buffer, which contains the luciferase substrate luciferin, consisted of 75 mM Tricine-HCl, pH 7.8, 24 mM MgSO4, 300 µM EDTA, 2 mM DTT, 313 µM D-luciferin, 640 µM coenzyme A, 660 µM ATP, 150 mM KCl, 10% (v/v) Triton X-100, 20% (v/v) glycerol, and 3.5% DMSO.
The libraries were screened for compounds that inhibited the refolding of thermally denatured luciferase using a high-throughput assay carried out with a slight modification of the method previously described. Briefly, compounds were reconstituted in 100% DMSO. Stocks of compounds purchased from Microsource, TimTec, Biofocus and BioMol were reconstituted to a concentration of 1 mg/mL. The stocks were diluted 40-fold into nano-pure water with the compounds being used at a final concentration of 12.5 µg/mL for the assay. Analyticon compounds (0.2 µmol) were reconstituted to a concentration of 4 mM, and were used at a final concentration of 40 µM in the assay. Assays were performed in 96-well microplates. To each well was added 30 µL of the water/DMSO compound solution, 15 µL of the reticulocyte lysate preparation, and 15 µL of the luciferase reagent. The plates were agitated and then allowed to incubate at 25 °C for one to three hours. After the incubation, 60 µL of assay buffer containing luciferin was added to each well. The plates were then read in a Molecular Devices LMaxII^384 microplate reader, and luminescence was measured in relative light units, with an integration time of 10 s. Compounds that inhibited luciferase refolding by approximately fifty percent or greater were then titrated into a refolding reaction containing native luciferase, to eliminate false positive hits that were direct inhibitors of luciferase as previously described. Compounds were classified as a potential Hsp90 inhibitor if they inhibited luciferase refolding by 60% or greater and there was no inhibition of the activity of native luciferase at the compound’s IC50 (concentration of the compound that inhibits luciferase refolding by 50%).
The titrations were repeated twice. For a more accurate determination of the IC50s for the compounds studied in Section 3.2.1 of this manuscript, a two-fold […] series of the compounds were used in triplicate, with the experiment being repeated three times.

[2] = system: Hsp90-dependent client proteins Cdk6, pAkt, Her2; Hsp90 and Hsp70 in MCF7 cells; test: Inhibitor-dependent depletion of Hsp90-dependent clients from MCF7 cells (Western blot); format: cell-based, human; settings: 24 h
Description: MCF7 cells were grown to confluence in Advanced DMEM/F12 (1:1; Gibco) supplemented with L-glutamine (2 mM), streptomycin (500 µg/mL), and penicillin (100 units/mL) and re-seeded at 0.4 × 10^6 cells/well/2 mL. Cells were incubated in a humidified atmosphere (37 °C, 5% CO2) for 24 h and treated with varying concentrations of compound or 0.5 µM geldanamycin in DMSO (0.25% DMSO final concentration), or vehicle (DMSO) for 24 h. Cells were harvested in cold PBS and lysed using MPER (Thermo Scientific/Pierce, USA) supplemented with protease and phosphatase inhibitors (Roche Applied Science, USA) according to manufacturer’s directions. Lysates were clarified at 14,000 g for 15 min at 4 °C. Protein concentrations were determined using the Pierce BCA protein assay kit per the manufacturer’s instructions. Equal amounts of protein (15 μg) were electrophoresed under reducing conditions (10% acrylamide gels), transferred to PVDF, and immunoblotted with the corresponding antibody (Anti-pAkt, -Her2, and -Cdk6 antibodies were from Cell Signaling; anti-actin was from Santa Cruz Biotechnology; and anti-Hsp90 and -Hsp70 were from Enzo Lifesciences). Membranes were incubated with an appropriate horseradish peroxidase-labeled secondary antibody, developed with a chemiluminescent substrate, and visualized.

[3] = system: heme-regulated eIF2α kinase (HRI); test: Hsp90-dependent maturation of the heme-regulated eIF2α kinase (HRI) in reticulocyte lysate; format: biochemical, rabbit; settings: heme-deficient lysate, mobility shift on PAGE
Description: [^35S]-Labeled His-tagged HRI was translated by coupled transcription/translation for 20 min in TnT reticulocyte lysate at 30 °C. Drugs or DMSO vehicle control were then added. After an additional 10 min, the reactions (4 µL aliquots) were diluted into 28 µL volumes of heme-supplemented control lysate or heme-deficient lysate, containing the same respective drugs and DMSO vehicle control. The samples were allowed to incubate for another 40 min at 37 °C. The [^35S]-Labeled His-tagged HRI was then adsorbed from the reactions with NTA-Ni^2+ agarose resin for 1 h at 4 °C. The agarose resins were the washed four times total, in P50T, P100T 2X, and P50T again. SDS sample buffer was then added to the pellets, the samples boiled, and then separated on an 8% PAGE gel, and transferred to PVDF membrane. Membranes were dried and exposed to X-ray film for autoradiography.

MCF7 breast cancer cells = test: Antiproliferation assay (MTS), MCF7 cells; format: cell-based; settings: Homo sapiens
Description: MCF7 cells were grown in Gibco Dulbecco’s Modified Essential Medium, supplemented with non-essential amino acids, 2 mM glutamine, and 10% fetal bovine serum. Cells were seeded at 2,000 cells per well in clear 96-well plates containing 100 µL of media per well, and the cells were allowed to attach overnight. The next day, serial dilutions of compounds in DMSO or DMSO control was added to the wells. Cells were then incubated at 37 °C for 48 h. Cell viability was determined using the Promega Cell Titer 96 Aqueous One Solution Cell Proliferation Assay, which makes use of a soluble tetrazolium compound that is converted into a chromophore by living cells. After incubation with compounds, 20 µL of the assay substrate solution were added to the wells, and the plate was incubated at 37 °C for an additional hour. The plate was then read at absorbance at 490 nm using a Molecular Devices Versamax plate reader. Values are expressed as percent DMSO control. All experiments were done in triplicate.

Plasmodium falciparum = system: Plasmodium falciparum; design: method as in PMID 17913482; settings: cited from earlier work
[4] = MCF7 cells, 48 h, MTS assay, read-out: IC50 MCF7 proliferation

Compound: C=C1C(=O)O[C@@H]2C[C@@H](C)[C@@H]3C=CC(=O)[C@@]3(C)[C@@H](O)[C@H]12 [Compound 9, Helenalin]
- IC50 [1]: ~80 µM

Compound: O=c1cc(-c2ccc(O)c(O)c2)oc2cc(O)cc(O)c12 [Compound 31, Luteolin]
- Inhibition of Hsp90-dependent refolding of luciferase in the initial screen [1]: no inhibitory activity in one of the screens

Compound: CC(C)=CCC[C@]1(C)C=Cc2c(O)c3c(c(CC=C(C)C)c2O1)O[C@]12C(=C[C@@H]4C[C@H]1C(C)(C)O[C@@]2(C/C=C(/C)C(=O)O)C4=O)C3=O [Compound 35, Gambogic acid]
- Inhibition of Hsp90-dependent refolding of luciferase in the initial screen [1]: consistently identified as hits

- Inhibition of Hsp90-dependent refolding of luciferase in the initial screen [1]: consistently identified as hits
Compound: COc1cc(/C=C/C(=O)CC(=O)/C=C/c2ccc(O)c(OC)c2)ccc1O [Compound 40, Curcumin]

Compound: CC(=O)c1c(O)c(C)c(O)c(Cc2c(O)c3c(c(C(=O)/C=C/c4ccccc4)c2O)OC(C)(C)C=C3)c1O [Compound 47, Rottlerin]
- IC50 [1]: ~60 µM
- IC50 ([1]; read-out: IC50 luciferase refolding): 63 ± 5 µM
- Depletion of Hsp90 clients (Cdk6, pAkt, Her2) ([2]; varying concentrations): concentration-dependent depletion
- Expression of Hsp70 ([2]; varying concentrations): concentration-dependent increase
- Expression of Hsp90 ([2]; varying concentrations): None of the compounds increased the expression of Hsp90
- Inhibition of Hsp90-dependent maturation of HRI ([3]; 100 µM): inhibited the maturation of HRI
- IC50 (MCF7 breast cancer cells; [4]): 7 ± 3 µM

Compound: COC(=O)[C@]1(C)CC[C@]2(C)CC[C@]3(C)C4=CC=C5C(=CC(=O)C(O)=C5C)[C@]4(C)CC[C@@]3(C)[C@@H]2C1 [Compound 49, Celastrol methyl ester]
- IC50 [1]: ~2 µM

Compound: CC(=O)O[C@@H]1C[C@@]2(C)[C@H](c3ccoc3)C[C@H]3O[C@]32[C@]2(C)C(=O)C(O)=C3C(C)(C)C(=O)C=C[C@]3(C)[C@@H]12 [Compound 50, Anthothecol]
- Fold higher activity than gedunin ([1]; relative to the Hsp90 inhibitor gedunin, assay not specified): approximately 10 fold
- Depletion of Hsp90 clients (Cdk6, pAkt, Her2) ([2]; varying concentrations): concentration-dependent depletion
- Expression of Hsp70 ([2]; varying concentrations): concentration-dependent increase
- Expression of Hsp90 ([2]; varying concentrations): None of the compounds increased the expression of Hsp90
- Inhibition of Hsp90-dependent maturation of HRI ([3]; 100 µM): inhibited the maturation of HRI
- IC50 (MCF7 breast cancer cells; [4]): 0.5 ± 0.06 µM
- Activity against the growth of Plasmodium falciparum in erythrocytes (Plasmodium falciparum): low micromolar activity

Compound: CC1=CC(=O)c2c(O)cccc2C1=O [Compound 84, Plumbagin]
- Inhibition of Hsp90-dependent refolding of luciferase in the initial screen [1]: consistently identified as hits

Compound: C=C1CCC(O)CC1=CC=C1CCCC2(C)C1CCC2C(C)CCCC(C)C (centres unmarked) [Compound 98]
- IC50 [1]: ~60 µM

Compound: COc1c2c3c4c(c(OC)c(=O)c5c(O)cc(OC)c(c6c(OC)cc(O)c(c1=O)c63)c54)[C@@H](C(C)=O)[C@@](C)(O)C2 [Compound 116, Hypocrellin A]
- IC50 [1]: 5 to 10 µM

- Inhibition of Hsp90-dependent maturation of HRI ([3]; 100 µM): inhibited the maturation of HRI
- IC50 (MCF7 breast cancer cells; [4]): 4 ± 0.6 µM
Compound: C=C(C)[C@@H](CC=C(C)C)C[C@@]12C[C@@H](CC=C(C)C)C(C)(C)[C@@](CC=C(C)C)(C(=O)C(C(=O)c3ccc(O)c(O)c3)=C1O)C2=O [Garcinol]
- Depletion of Hsp90 clients (Cdk6, pAkt, Her2) ([2]; varying concentrations): concentration-dependent depletion
- Expression of Hsp70 ([2]; varying concentrations): no effect
- Expression of Hsp90 ([2]; varying concentrations): None of the compounds increased the expression of Hsp90

Compound: COc1cc(/C=C/C(=O)N2CCC=CC2=O)cc(OC)c1OC [Piplartine]
- Depletion of Hsp90 clients (Cdk6, pAkt, Her2) ([2]; varying concentrations): concentration-dependent depletion
- Expression of Hsp70 ([2]; varying concentrations): no effect
- Expression of Hsp90 ([2]; varying concentrations): None of the compounds increased the expression of Hsp90
- Inhibition of Hsp90-dependent maturation of HRI ([3]; 100 µM): inhibited the maturation of HRI
- IC50 (MCF7 breast cancer cells; MCF7, 48 h, read-out: IC50 MCF7 proliferation (µM)): 10 ± 3 µM

- Inhibition of Hsp90-dependent maturation of HRI ([3]; 20 µM): inhibited the maturation of HRI
Compound: COC1=C2C[C@@H](C)C[C@H](OC)[C@H](O)[C@@H](C)/C=C(\C)[C@H](OC(N)=O)[C@@H](OC)/C=C\C=C(/C)C(=O)NC(=CC1=O)C2=O [geldanamycin, reference compound]
- Expression of Hsp70 ([2]; 0.5 µM): increase in the expression of Hsp70

- Inhibition of Hsp90-dependent maturation of HRI [3]: inhibited the maturation of HRI
Compound: [Na+].[Na+].[O]=[Mo](=[O])([O-])[O-] [molybdate, sodium molybdate, reference compound]

- Inhibition of Hsp90-dependent maturation of HRI [3]: inhibited the maturation of HRI
Compound: CO[C@@H]1[C@@H](OC(N)=O)[C@@H](O)[C@H](Oc2ccc3c(O)c(NC(=O)c4ccc(O)c(CC=C(C)C)c4)c(=O)oc3c2C)OC1(C)C [novobiocin, reference compound]

Compound: L-Adrenaline [Compound 99]
- IC50 [1]: ~55 µM

Compound: Tyrothricin [Compound 74]
- IC50 [1]: ~5 µM

Reference: paper PMC4009755, “High-Throughput Screen of Natural Product Libraries for Hsp90 Inhibitors” (Biology, 2014)
